In patent US11292801B2, “Calpain modulators and therapeutic uses thereof” (Blade Therapeutics, Inc., priority 2016, dated 2022):

How the values were obtained:
Human Calpain 1/NS1 = target: T1, Human Calpain 1/NS1 (Homo sapiens, UniProt P07384); test: Biochemical inhibition of calpain 1, continuous fluorescence (FRET substrate) assay; settings: mean, read-out: Human Calpain 1/NS1 IC50 (nM)_MEAN
T1 sequence (P07384 1-714): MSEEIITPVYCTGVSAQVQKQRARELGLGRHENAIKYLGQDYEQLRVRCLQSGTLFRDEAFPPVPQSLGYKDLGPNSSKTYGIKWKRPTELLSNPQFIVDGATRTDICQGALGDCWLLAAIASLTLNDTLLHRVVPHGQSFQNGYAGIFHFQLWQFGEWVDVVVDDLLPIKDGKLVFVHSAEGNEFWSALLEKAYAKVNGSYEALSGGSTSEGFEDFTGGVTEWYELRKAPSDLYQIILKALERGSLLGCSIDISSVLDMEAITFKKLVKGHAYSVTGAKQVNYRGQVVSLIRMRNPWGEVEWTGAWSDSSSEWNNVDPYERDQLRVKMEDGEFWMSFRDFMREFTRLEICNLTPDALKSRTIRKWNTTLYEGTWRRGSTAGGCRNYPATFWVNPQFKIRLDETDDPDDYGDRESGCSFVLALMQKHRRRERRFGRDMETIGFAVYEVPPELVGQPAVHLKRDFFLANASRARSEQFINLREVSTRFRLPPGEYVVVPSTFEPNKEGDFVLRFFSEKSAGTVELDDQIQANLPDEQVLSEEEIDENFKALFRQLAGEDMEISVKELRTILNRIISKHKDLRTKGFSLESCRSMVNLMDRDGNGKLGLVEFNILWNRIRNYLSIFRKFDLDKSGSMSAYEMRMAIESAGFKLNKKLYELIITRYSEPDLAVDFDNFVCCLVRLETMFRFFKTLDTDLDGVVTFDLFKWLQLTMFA
T1 sequence (P04632 1-268 partner): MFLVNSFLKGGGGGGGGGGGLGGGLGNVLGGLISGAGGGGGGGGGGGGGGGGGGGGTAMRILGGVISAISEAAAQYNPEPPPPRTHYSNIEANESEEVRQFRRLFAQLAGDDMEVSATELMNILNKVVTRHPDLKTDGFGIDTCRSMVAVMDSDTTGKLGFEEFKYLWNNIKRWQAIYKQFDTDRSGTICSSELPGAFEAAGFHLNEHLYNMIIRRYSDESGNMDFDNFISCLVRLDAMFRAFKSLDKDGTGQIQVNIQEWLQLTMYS
Method in brief: (§1)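 IC50 values come from 4-parameter fits of progress-curve rates (1-5 min slopes) against log inhibitor concentration. Calpain and inhibitor premixed at ambient 25C in Tris pH ~7.5/NaCl/DTT buffer, then CaCl2 and FRET substrate added to activate; 5-FAM fluorescence (ex 490/em 520) followed 10 min.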

Human Calpain 2/NS1 = target: T2, Human Calpain 2/NS1 (Homo sapiens, UniProt P17655); test: Biochemical inhibition of calpain 2, continuous fluorescence (FRET substrate) assay; settings: mean, read-out: Human Calpain 2/NS1 IC50 (nM)_MEAN
T2 sequence (P17655 1-700): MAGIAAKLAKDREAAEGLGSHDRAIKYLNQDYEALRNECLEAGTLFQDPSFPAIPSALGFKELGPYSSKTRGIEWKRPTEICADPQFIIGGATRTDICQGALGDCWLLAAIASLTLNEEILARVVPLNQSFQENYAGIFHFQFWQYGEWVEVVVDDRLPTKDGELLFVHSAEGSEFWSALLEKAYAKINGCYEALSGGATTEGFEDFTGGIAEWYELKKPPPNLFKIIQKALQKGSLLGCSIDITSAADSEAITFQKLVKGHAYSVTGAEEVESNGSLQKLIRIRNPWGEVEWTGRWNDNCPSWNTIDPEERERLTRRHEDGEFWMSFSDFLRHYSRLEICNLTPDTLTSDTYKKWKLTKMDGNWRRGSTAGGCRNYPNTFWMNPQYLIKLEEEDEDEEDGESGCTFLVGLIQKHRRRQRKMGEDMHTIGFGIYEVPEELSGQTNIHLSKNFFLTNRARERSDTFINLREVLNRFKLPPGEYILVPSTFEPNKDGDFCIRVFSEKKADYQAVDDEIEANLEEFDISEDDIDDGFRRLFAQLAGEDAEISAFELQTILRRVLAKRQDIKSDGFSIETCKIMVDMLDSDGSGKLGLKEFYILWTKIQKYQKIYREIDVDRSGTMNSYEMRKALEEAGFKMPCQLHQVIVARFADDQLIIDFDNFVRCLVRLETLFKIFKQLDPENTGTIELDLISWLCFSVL
T2 sequence (P04632 1-268 partner): T1 sequence (P04632 1-268 partner)
Method in brief: as §1

Human Calpain 9/NS1 = target: T3, Human Calpain 9/NS1 (Homo sapiens, UniProt O14815); test: Biochemical inhibition of calpain 9, continuous fluorescence (FRET substrate) assay; settings: mean, read-out: Human Calpain 9/NS1 IC50 (nM)_MEAN
T3 sequence (O14815 1-690): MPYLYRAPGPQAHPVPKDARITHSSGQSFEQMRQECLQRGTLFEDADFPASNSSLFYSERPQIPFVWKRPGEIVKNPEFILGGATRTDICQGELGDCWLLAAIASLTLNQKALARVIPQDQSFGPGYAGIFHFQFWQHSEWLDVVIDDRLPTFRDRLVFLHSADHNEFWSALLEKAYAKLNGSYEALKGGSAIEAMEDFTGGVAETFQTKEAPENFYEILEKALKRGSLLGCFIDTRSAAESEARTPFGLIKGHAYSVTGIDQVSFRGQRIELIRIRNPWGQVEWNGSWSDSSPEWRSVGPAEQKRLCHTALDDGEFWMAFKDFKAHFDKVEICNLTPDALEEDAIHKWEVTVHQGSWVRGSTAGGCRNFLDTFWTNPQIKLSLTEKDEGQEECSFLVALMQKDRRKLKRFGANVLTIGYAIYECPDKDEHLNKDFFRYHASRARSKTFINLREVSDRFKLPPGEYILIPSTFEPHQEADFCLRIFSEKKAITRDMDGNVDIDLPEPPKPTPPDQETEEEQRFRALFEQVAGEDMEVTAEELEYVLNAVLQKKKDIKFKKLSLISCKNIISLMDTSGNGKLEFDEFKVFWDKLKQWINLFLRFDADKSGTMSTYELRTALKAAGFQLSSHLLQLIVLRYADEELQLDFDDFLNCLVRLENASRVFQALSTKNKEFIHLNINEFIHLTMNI
T3 sequence (P04632 1-268 partner): T1 sequence (P04632 1-268 partner)
Method in brief: as §1

SMILES | IC50 (Human Calpain 1/NS1) [nM] | IC50 (Human Calpain 2/NS1) [nM] | IC50 (Human Calpain 9/NS1) [nM]
NS(=O)(=O)c1ccc(CNC(=O)C(=O)C2CCCCOCCOCc3ccccc3C(=O)N2)cc1 (stereo not drawn) [Compound 84, 2-Oxo-2-(12-oxo-1,3,4,6,7,8,9,10,11,12-decahydrobenzo[f][1,4]dioxa[9]aza-cyclotetradecin-10-yl)-N-(4-sulfamoylbenzyl)acetamide] | > 10000 | 3000 to 10000 | < 3000
O=C(NC1CC1)C(=O)[C@@H]1Cc2ccc(cc2)CCCCc2cccc(c2)-c2ccn(n2)-c2ncccc2C(=O)N1 [Compound 74, N-cyclopropyl-2-oxo-2-((10S,E)-12-oxo-2′H-11-aza-1(2,3)-pyridina-2(1,3)-pyrazola-3(1,3),8(1,4)-dibenzenacyclododecaphane-10-yl)acetamide] | < 3000 | < 3000 | < 3000
O=C[C@@H]1Cc2ccc(cc2)OC/C=C/COc2cccc(c2)-c2ccn(n2)-c2ncccc2C(=O)N1 [Compound 44, (2^2E,6S,11E)-4-oxo-2^1H-9,14-dioxa-5-aza-3(2,3)-pyridina-2(3,1)-pyrazola-1(1,3),8(1,4)-dibenzenacyclotetradecaphan-11-ene-6-carbaldehyde] | < 3000 | < 3000 | < 3000
O=C[C@@H]1CCCCCCOCc2ccccc2C(=O)N1 [Compound 42, (S)-11-Oxo-1,3,4,5,6,7,8,9,10,11-decahydrobenzo[c][1]oxa[6]azacyclotridecine-9-carbaldehyde] | > 10000 | < 3000 | < 3000
O=C(NCc1ccc(F)cc1)C(=O)C1CCCCOCCOCc2ccccc2C(=O)N1 (stereo not drawn) [Compound 98, N-(4-fluorobenzyl)-2-oxo-2-(12-oxo-1,3,4,6,7,8,9,10,11,12-decahydrobenzo[f][1,4]dioxa[9]azacyclotetradecin-10-yl)acetamide] | > 10000 | < 3000 | < 3000
O=C(NCc1cccnc1)C(=O)C1CCCCOCCOCc2ccccc2C(=O)N1 (stereo not drawn) [Compound 103, 2-Oxo-2-(12-oxo-1,3,4,6,7,8,9,10,11,12-decahydrobenzo[f][1,4]dioxa[9]aza-cyclotetradecin-10-yl)-N-(pyridin-3-ylmethyl)acetamide] | > 10000 | > 10000 | < 3000
O=C[C@@H]1CCCCOCCn2ccc3cccc(c32)C(=O)N1 [Compound 8, (S)-11-Oxo-2,3,4,5,8,9,10,11-octahydrobenzo[b][1]oxa[5]azacyclotridecine-9-carbaldehyde] | 3000 to 10000 | < 3000 | < 3000

Results, then the molecule that gave them:

IC50 (Human Calpain 1/NS1) [nM] | IC50 (Human Calpain 2/NS1) [nM] | IC50 (Human Calpain 9/NS1) [nM] | SMILES
> 10000 | > 10000 | > 10000 | Cc1cccc(C)c1NC(=O)C(=O)[C@@H]1C/C=C\COCCOCc2ccccc2C(=O)N1 [Compound 61, (S,Z)—N-(2,6-dimethylphenyl)-2-oxo-2-(12-oxo-1,3,4,6,9,10,11,12-octahydrobenzo[f][1,4]dioxa[9]azacyclotetradecin-10-yl)acetamide]
< 3000 | < 3000 | < 3000 | O=C[C@@H]1Cc2ccc(cc2)OCCCCOc2ccc3c(cnn3-c3ncccc3C(=O)N1)c2 [Compound 67, (5S)-3-oxo-1^1H-8,13-dioxa-4-aza-1(1,5)-indazola-2(2,3)-pyridina-7(1,4)-benzenacyclotridecaphane-5-carbaldehyde]
< 3000 | < 3000 | < 3000 | NC(=O)C(=O)[C@@H]1CCCCCOc2ccc(F)c(c2)-c2ccccc2C(=O)N1 [Compound 148, (S)-2-(2^6-fluoro-11-oxo-3-oxa-10-aza-1(1,2),2(1,3)-dibenzena-cycloundecaphane-9-yl)-2-oxoacetamide]
< 3000 | < 3000 | < 3000 | NC(=O)C(=O)[C@@H]1CCCCCCOc2ccnc(c2)-c2ccccc2C(=O)N1 [Compound 132, (S)-2-oxo-2-(3-oxo-12-oxa-4-aza-1(2,4)-pyridina-2(1,2)-benzenacyclododecaphane-5-yl)acetamide]
> 10000 | > 10000 | > 10000 | CCOC(=O)CCNC(=O)C(=O)[C@@H]1C/C=C/COCCOCc2ccccc2C(=O)N1 [Compound 63, Ethyl (S,E)-3-(2-oxo-2-(12-oxo-1,3,4,6,9,10,11,12-octahydrobenzo[f][1,4]dioxa[9]azacyclotetradecin-10-yl)acetamido)propanoate]
> 10000 | < 3000 | < 3000 | CCOC(=O)CNC(=O)C(=O)[C@@H]1CCCCOCCOCc2ccccc2C(=O)N1 [Compound 56, Ethyl (S)-(2-oxo-2-(12-oxo-1,3,4,6,7,8,9,10,11,12-decahydrobenzo[f][1,4]dioxa[9]azacyclotetradecin-10-yl)acetyl)glycinate]
> 10000 | > 10000 | < 3000 | CCCCNC(=O)C(=O)[C@@H]1C/C=C/COCCOCc2ccccc2C(=O)N1 [Compound 64, (S,E)-N-butyl-2-oxo-2-(12-oxo-1,3,4,6,9,10,11,12-octahydrobenzo[f][1,4]dioxa[9]azacyclotetradecin-10-yl)acetamide]
> 10000 | 3000 to 10000 | < 3000 | Cc1cc(C)cc(CNC(=O)C(=O)C2CCCCOCCOCc3ccccc3C(=O)N2)c1 (stereo not drawn) [Compound 111, N-(3,5-dimethylbenzyl)-2-oxo-2-(12-oxo-1,3,4,6,7,8,9,10,11,12-decahydrobenzo[f][1,4]dioxa[9]azacyclotetradecin-10-yl)acetamide]
< 3000 | < 3000 | < 3000 | O=C[C@@H]1Cc2cccc(c2)CCCOCc2ccccc2C(=O)N1 [Compound 32, (S)-2-Oxo-10-oxa-3-aza-1(1,2),6(1,3)-dibenzena-cycloundecaphane-4-carbaldehyde]
> 10000 | > 10000 | > 10000 | CCNC(=O)C(=O)[C@@H]1CCCCCCCCCc2ccccc2C(=O)N1 [Compound 27, (S)—N-ethyl-2-oxo-2-(1-oxo-1,2,3,4,5,6,7,8,9,10,11,12-dodecahydrobenzo[c][1]azacyclotetradecin-3-yl)acetamide]
